{
  "source": "patent US20220016241A1",
  "about": "“COMPOSITIONS AND METHODS FOR REDUCING ANTIGEN-SPECIFIC IMMUNOGENICITY” (The Research Foundation for The State University of New York, priority 2013, published 2022)",
  "key": {"[1]": {"system": "anti-GAA peptide antibody titers", "experiment": "Effect of OPLS and PS-liposomes on GAA peptide immunogenicity", "type": "in vivo, mouse", "conditions": "10 μg peptide, 4 weekly s.c.; OPLS 5 mg or PS/PC 1:10,000 protein:lipid", "procedure": "Materials and Methods. GAA peptide Source: This GAA peptide was produced by American Peptide Company (Sunnyvale, Calif.). They produced for us a peptide […] containing amino acids 339-352 of the full length GAA sequence, YIFLGPEPKSVVQ (SEQ ID NO:1). OPLS Source: Sigma-Aldrich (St. Louis, Mo.) Peptide concentration dose: 10 μg/injection. Free GAA peptide (n=4), PS-GAA peptide (n=4), and OPLS-GAA peptide (n=5). Each mouse received 4 weekly subcutaneous (s.c.) injections near the base of the tail of 100 μl/injection of their treatment. Two weeks after the last injection, a retro-orbital blood sample was taken from each mouse. Samples were stored at −80° C. until analysis. These samples were then analyzed for anti-GAA peptide Ab titers. Anti-GAA antibody titers were measured as follows: ELISA plate (maxisorp, NUNC) was coated with 100 μl of 10 μg/ml of sterile rhGAA in sodium carbonate-bicarbonate buffer pH=9.6. The plate was incubated overnight at 4° C. The plate was washed six times with PBS containing 0.05% Tween 20 (PBS-T, 250 μl/well) using an automated plate washer. […] The reaction was stopped with 2 N sulfuric acid and read immediately at 450 nm using a micro-plate reader. The titer values are quantitated using a statistical endpoint method as described by Frey et al. Control plasma samples were run on each plate. […]"}, "IL-12p70": {"system": "IL-12p70", "experiment": "Cytokine profile of BMDCs in vitro, IL-12p70 ELISA", "type": "cell-based, HA mice", "conditions": "1 μg/ml FVIII with 50 mM OPLS, 48 hours, n=4", "procedure": "Generation of bone marrow derived dendritic cells (BMDC): Bone marrow was isolated from 6 to 8 week old naïve HA. Briefly, bone marrow was cultured in RPMI media supplemented with […] (low endotoxin), 2-mercaptoethanol, Pen/Strep and […] GMCSF. Media was changed on days 3, 6 and 8 of culture and DCs were used on day 9. BMDC are then harvested and used as needed. To verify the differentiation of bone marrow cells into DCs, CD11c surface expression was confirmed by flow cytometry using anti-CD11c-FITC antibody with appropriate isotope controls.\nEffects of OPLS on cytokine profile of BMDCs in vitro: The effects of OPLS on cytokine secretion by dendritic cells were investigated. On day 9 BMDCs, generated as above, were treated with FVIII as an antigen in the presence of increasing dose of OPLS. Changes in production of pro-inflammatory cytokines TNF-α and IL12p70 as well as the regulatory cytokine TGF-β were monitored as a function of dose. BMDCs were exposed to 1 μg/ml FVIII with increasing dose of OPLS (0, 0.5, 1, 10, 25, 50 mM). 1 M stock of OPLS was prepared by adding the appropriate amount of OPLS directly to RPMI media, and pH was adjusted using sterile 3N and 1N NaOH. […] TGF-β, TNF-α and IL-12p70 concentrations were determined using standard ELISA (R&D System Inc. Minneapolis, Minn., USA or Invitrogen […], Calif.)."}, "Humira": {"system": "Humira", "experiment": "Binding of OPLS to Humira", "procedure": "The binding of OPLS to several therapeutic proteins was evaluated using fluorescence spectroscopy (FIG. 2). The fluorescence emission reduced as the concentration of OPLS was increased. The fluorescence intensity changes were highest for FVIII compared to GAA and OVA. […] The high affinity binding for FVIII is consistent with the existence of a putative lipid binding domain.\nAs shown in FIG. 6(d), anti-Humira antibody titers were lower in mice that were co-administered OPLS (5 mg dose) and Humira® ([…]) via the s.c. route than in those administered Humira® alone ([…]) (also via the s.c. route) after 4 weekly injection followed by a 2 weeks washout period. Titer values were obtained by classical sandwitch ELISA were the plates was coated with Humira before incubation with dilutions with plasma samples, anti-Humira antibodies were detected with a rat anti-mouse-HRP conjugated antibodies. […] It is highly doubtful that the weak binding seen here is “shielding” an immunologic epitope."}, "lymphocyte subsets": {"system": "lymphocyte subsets", "experiment": "Lymphocyte subsets in peripheral blood after 21 daily doses of OPLS", "type": "in vivo, rhesus macaques", "conditions": "21 daily doses of 25 mg/kg", "procedure": "FIG. 23. Effect of 21 daily doses of 25 mg/kg OPLS on lymphocyte subsets in peripheral blood of rhesus macaques. Samples were drawn from the animals at baseline (day 0), at an intermediate time point during treatment (day 8) and 1 day after the termination of dosing (day 22) and immunophenotyped using flow cytometry. […] (*p value<0.05)."}, "[2]": {"system": "anti-Humira antibody titers", "experiment": "Effect of OPLS on immunogenicity of adalimumab", "type": "in vivo, mice", "conditions": "5 mg OPLS with Humira s.c., 4 weekly injections, 2 weeks washout", "procedure": "Methods: n=8 animals/group were immunized with 4 weekly s.c. injections of 10 μg of adalimumab in 100 μl of either sterile TRIS for the free group or in 5 mg OPLS in sterile TRIS for the OPLS-Adalimumab group. After a 2 week rest period, a blood sample from the saphenous vein was collected for titer analysis. Titer values were obtained by classical sandwitch ELISA. Briefly, Nunc-Maxisorb 96-well plates were coated overnight at 4° C. with 50 μl/well of 2.5 μg/ml Humira. Plates were then washed and blocked with 1% bovine serum albumin (blocking buffer). 50 μl/well of various dilutions of the sample were added to the plate and incubated at room temperature for 2 h. Plasma samples from animals exposes to a sham treatment (buffer only) served as controls. The plates were then washed and incubated with 50 μl of goat anti-mouse anti-body-HRP conjugate at a 1:50000 dilution in blocking buffer at room temperature for 1 h. Color was developed for 20 min with 100 μl of TMB solution. 100 μl of 2 N H2SO4 was used to stop the reaction. Optical density at […] was measured using a plate reader. Non-responders were given the value of the plate specific factor for uniformity."}},
  "data": [
    {"smiles": "N[C@@H](COP(=O)(O)O)C(=O)O", "note": "[OPLS, O-Phospho-L-Serine]", "values": [
      {"measurement": "Anti-GAA peptide antibody titers vs GAA peptide alone", "setting": "[1]", "result": "lower"},
      {"measurement": "IL-12p70 production by BMDC", "setting": "IL-12p70", "result": "total shut down"},
      {"measurement": "Binding between OPLS and Humira", "setting": "Humira", "result": "weak binding"},
      {"measurement": "% of B-cells", "setting": "lymphocyte subsets", "result": "transient increase"},
      {"measurement": "Lymphocyte subsets, baseline vs post treatment", "setting": "lymphocyte subsets; days 0, 8, 22", "result": "no significant change"},
      {"measurement": "Anti-Humira antibody titers vs Humira alone", "setting": "[2]", "result": "lower"}
    ]}
  ]
}
